Measured values published in publication PMC6391970, “Design, Synthesis and Characterization of Covalent KDM5 Inhibitors” (Angewandte Chemie (International Ed. in English), 2018).
Marks after values point to notes of the source that are not given here.

How the values were obtained:
[1] = test system: MDCK cells; conditions: Previously reported values in MDCK cells, A to B; cited from earlier work
[2] = test system: KDM5B; conditions: previously reported value, cited from earlier work
[3] = target: KDM5B (NanoLuc-KDM5B) (Homo sapiens, UniProt Q9UGL1); assay: NanoBRET cellular target engagement assay in HEK293 cells
Sequence of KDM5B (NanoLuc-KDM5B) (Q9UGL1 whole entry): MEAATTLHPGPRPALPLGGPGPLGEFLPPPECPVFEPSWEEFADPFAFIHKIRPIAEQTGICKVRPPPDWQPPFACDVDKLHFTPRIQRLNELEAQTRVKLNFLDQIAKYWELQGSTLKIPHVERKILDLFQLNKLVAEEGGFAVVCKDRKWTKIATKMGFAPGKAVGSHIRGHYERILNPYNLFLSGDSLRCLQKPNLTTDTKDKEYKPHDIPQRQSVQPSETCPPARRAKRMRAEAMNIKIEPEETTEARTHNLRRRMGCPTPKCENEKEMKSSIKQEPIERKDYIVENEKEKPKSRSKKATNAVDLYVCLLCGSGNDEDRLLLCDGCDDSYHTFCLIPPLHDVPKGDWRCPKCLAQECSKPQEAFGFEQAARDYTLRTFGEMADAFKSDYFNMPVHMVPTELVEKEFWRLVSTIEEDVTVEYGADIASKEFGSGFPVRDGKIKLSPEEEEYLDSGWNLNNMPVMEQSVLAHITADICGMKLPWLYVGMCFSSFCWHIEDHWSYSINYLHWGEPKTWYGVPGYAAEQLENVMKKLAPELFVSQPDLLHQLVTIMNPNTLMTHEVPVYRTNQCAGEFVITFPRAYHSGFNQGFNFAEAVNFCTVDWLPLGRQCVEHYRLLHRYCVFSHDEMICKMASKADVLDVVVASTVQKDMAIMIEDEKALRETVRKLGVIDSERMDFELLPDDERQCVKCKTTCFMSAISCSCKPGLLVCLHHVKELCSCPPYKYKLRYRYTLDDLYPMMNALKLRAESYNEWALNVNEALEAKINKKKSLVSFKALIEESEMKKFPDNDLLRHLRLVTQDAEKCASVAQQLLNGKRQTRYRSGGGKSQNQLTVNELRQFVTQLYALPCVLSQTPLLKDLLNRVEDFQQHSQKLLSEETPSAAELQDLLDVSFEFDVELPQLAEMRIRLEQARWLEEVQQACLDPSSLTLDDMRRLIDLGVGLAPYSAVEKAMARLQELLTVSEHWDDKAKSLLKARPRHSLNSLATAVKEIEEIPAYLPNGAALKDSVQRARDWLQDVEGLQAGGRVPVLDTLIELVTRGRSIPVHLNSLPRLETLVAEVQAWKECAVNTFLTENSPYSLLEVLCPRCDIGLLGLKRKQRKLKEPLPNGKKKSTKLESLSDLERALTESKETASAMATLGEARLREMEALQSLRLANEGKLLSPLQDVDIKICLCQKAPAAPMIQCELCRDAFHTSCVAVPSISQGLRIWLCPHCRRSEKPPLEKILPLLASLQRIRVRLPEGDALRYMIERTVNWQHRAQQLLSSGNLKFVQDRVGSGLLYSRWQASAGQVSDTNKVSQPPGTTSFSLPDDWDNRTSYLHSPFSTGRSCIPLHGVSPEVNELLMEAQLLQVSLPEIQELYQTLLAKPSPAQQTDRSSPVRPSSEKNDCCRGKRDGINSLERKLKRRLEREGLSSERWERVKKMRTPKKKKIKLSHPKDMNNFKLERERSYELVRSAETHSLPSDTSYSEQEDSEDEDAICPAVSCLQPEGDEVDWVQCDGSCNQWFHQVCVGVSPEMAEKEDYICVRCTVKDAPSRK

[4] = target: T1, KDM5B (Homo sapiens, UniProt Q9UGL1); assay: Timecourse KDM5B AlphaScreen inhibition and kinact/Ki calculation; format: biochemical
T1 sequence (Q9UGL1 26-101 limits assumed): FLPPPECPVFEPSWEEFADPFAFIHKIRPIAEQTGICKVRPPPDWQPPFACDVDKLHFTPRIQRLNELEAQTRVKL
T1 sequence (Q9UGL1 374-770 limits assumed): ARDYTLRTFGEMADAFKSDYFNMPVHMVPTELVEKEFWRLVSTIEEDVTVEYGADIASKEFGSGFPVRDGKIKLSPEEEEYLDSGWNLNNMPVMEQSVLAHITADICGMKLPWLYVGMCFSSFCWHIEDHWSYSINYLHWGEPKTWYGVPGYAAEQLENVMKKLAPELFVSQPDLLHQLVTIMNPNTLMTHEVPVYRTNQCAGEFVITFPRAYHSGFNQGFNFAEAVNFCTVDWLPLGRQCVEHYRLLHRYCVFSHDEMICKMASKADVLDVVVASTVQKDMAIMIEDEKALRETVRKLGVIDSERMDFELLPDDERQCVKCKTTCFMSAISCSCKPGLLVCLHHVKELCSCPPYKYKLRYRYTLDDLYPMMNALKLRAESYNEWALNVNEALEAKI
Description: These parameters were calculated by using an established method to derive K i and k inact directly from time‐dependant IC50 values (Table S1). […]
(§1) KDM alpha screen selectivity
(§2) Inhibition of histone demethylases was assessed using the histone demethylase AlphaScreen assay (Amplified Luminescence Proximity Homogenous Assay) as previously reported.[4] The basis of this assay for lysine demethylases have been widely described.[5] In brief, the assay was performed in 384-well plate format using white proxiplates (PerkinElmer), and transfer of titrations of compounds (100 nl) was performed using an ECHO 550 acoustic dispenser […]
(§3) Tween- 20) containing the appropriate demethylase enzyme (see Supplementary table 1 for final concentrations) was transferred to each well of a 384-well proxiplate with a Multidrop™ Combi Reagent Dispenser, and the enzymes allowed to pre-incubate for 120 minutes with compound (final concentration of DMSO was 1%). After that time, the enzyme reaction was initiated by addition of 5 µl of a substrate mix consisting of Ketoglutarate (2-OG), Ferrous Ammonium Sulphate (FAS), L-Ascorbic Acid (LAA) and biotinylated peptide substrate (see Supporting table X for final assay concentrations) and the reaction incubated for the indicated time at room temperature. Reaction was stopped by the addition of 5 μl of assay buffer containing EDTA (7.5 mM) and NaCl (400 mM). Streptavidin Donor beads (0.08 mg/ml) and Protein-A conjugated acceptor beads (0.08 mg/ml) (AlphaScreen General IgG detection kit was from Perkin Elmer) were pre-incubated for 1 hour with an antibody to the product methyl mark (Supplementary Table 1) and the presence of biotin-H3-product was detected by addition of 5 µl of the pre-incubated AlphaScreen beads (final concentrations of 0.02 mg/ml with respect to acceptor and donor beads). Detection was allowed to proceed for 2 hour at room temperature and the assay plates read in a BMG Labtech Pherastar FS plate reader (excitation, 680 nm; emission, 570 nm). Data were normalized to the no enzyme control and the IC50 determined from the nonlinear regression curve fit […]
Timecourse KDM5B inhibition and Kinact/Ki calculations
The timecourse alphascreen assay was performed using the conditions described in the AlphaScreen section for KDM5B but with different pre-incubation times (from 0 to 120 min) for the enzyme with compound. Data were normalized to the no enzyme control and the IC50 for each timepoint was determined from the nonlinear regression curve fit using GraphPad Prism 7. The Ki and kinact were calculated through a least squares fit of the obtained IC50 at the different timepoints into the equation below which was derived by Krippendorff et al.[6] S is the H3K4me3 peptide substrate concentration of 0.1 µM and KM is the Michaelis-Menten constant for the substrate of 0.5 µM. XLFit software was used to compute the values of Ki and kinact. […]

[5] = Caco-2 permeability; format: in vitro ADME; conditions: human, Caco-2, Caco‐2 cells, A to B
[6] = target: T2, KDM5B (Homo sapiens, UniProt Q9UGL1, A373G/DEL102-140/DEL143-371/Q372G); assay: Covalent binding by MS (RapidFire intact mass, peptide mapping), KDM5B
T2 construct: A KDM5B construct encoding regions Phe26-Ile770 was amplified from an OriGene cDNA clone; 6x-histidine tag (TEV-cleavable) (N, cleaved yes); made in house; host or cells: Sf9 insect cells (baculovirus)
T2 sequence (Q9UGL1 with tags, fused parts or gaps DEL102-140/DEL143-371/Q372G/A373G): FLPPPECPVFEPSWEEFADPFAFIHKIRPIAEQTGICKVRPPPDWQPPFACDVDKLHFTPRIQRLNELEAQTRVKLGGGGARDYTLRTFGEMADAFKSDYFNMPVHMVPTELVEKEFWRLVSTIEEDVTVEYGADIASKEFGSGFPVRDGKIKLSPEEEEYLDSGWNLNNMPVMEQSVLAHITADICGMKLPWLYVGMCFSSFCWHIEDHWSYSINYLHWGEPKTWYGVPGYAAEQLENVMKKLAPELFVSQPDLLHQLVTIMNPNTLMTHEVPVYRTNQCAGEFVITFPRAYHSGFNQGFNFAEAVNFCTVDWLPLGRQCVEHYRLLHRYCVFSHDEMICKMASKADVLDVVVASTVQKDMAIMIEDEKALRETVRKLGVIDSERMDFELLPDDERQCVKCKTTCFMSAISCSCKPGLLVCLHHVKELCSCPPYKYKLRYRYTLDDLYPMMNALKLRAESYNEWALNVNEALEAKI

[7] = target: T2, KDM5B; assay: KDM5B 2-OG competition assay (AlphaScreen); format: biochemical; conditions: for IC50: AlphaScreen in vitro activity in KDM5B
Description: as §1, §2
as §3, with “570” for “570 nm). Data were normalized to the no enzyme control and the IC50 determined from the nonlinear regression curve fit”
IC50(t) = Ki (1 + K ) . ( η . k .t − 1) (1)
KDM5B 2-OG competition assay
2-OG competition assay were performed as described for the general KDM5B AlphaScreen method above, varying the 2-OG concentrations from a range of 1mM to 0.5 μM. Data were normalized to the no enzyme control and the IC50 determined from the nonlinear regression curve fit using GraphPad Prism 7.

SMILES	P app [1]	2‐OG shift [2]	IC50 ([2]; read-out: IC50 (2‐OG 1 μM), KDM5B)	IC50 [3]	Ki [4]	k inact/K i [4]	kinact [4]	kinact/KI ([4]; Table S1)	Papp A→B [5]	inhibitor reactive residue in KDM5B (peptide mapping, LCMS/MS) ([6]; digestion of protein–inhibitor adduct)	covalent binding to KDM5B by intact MS ([6]; protein 1 μM, compound 10 μM, 2 hours, 37 °C)	IC50 ([7]; IC50 (2‐OG 1 μM), 2-OG 1 μM)	drop in potency with 2-OG concentration ([7]; 2-OG from 0.5 μM up to 1000 μM)	IC50 ([7]; IC50 (2‐OG 1 mM), 2-OG 1 mM)
CC(C)c1c(-c2ccccc2)[nH]c2c(C#N)cnn2c1=O [CPI‐455]	17.2^[c] 10^−6 cm s^−1	2.0^[c]	0.003 µM	0.4 µM	–	–	–	–	–	–	–	–	–	–
C=CC(=O)N1CCN(CCc2cnn(-c3nccc4c(=O)[nH]cnc34)c2)CC1 [Compound 3]	–	–	–	> 30 µM	0.834 ± 0.079 µM	1400 M⁻¹ s⁻¹	0.0012 ± 1.3e-05 s⁻¹	1400 ± 20 M⁻¹ s⁻¹	< 1.5 ×10⁻⁶ cm/s	binding specifically to the desired C480	major peak relating to protein–inhibitor adduct	0.184 µM	–	–
CC(C)c1c(-c2cnn(C(C)(C)C)c2)[nH]c2c(C#N)cnn2c1=O [Compound 1, reference compound]	7.5^[c] 10^−6 cm s^−1	–	–	0.34 µM	–	–	–	–	–	–	–	0.015 µM	8 fold	0.377 µM
